The values below come from patent publication US10772836B2, “Method for producing particles” (RICOH COMPANY, LTD., priority 2016, dated 2020).

Series [1] in a line: Oral absorbability of […], blood drug concentration after oral administration (Test Example 6). The format is in vivo. The note with it: rat, plasma, male SD rats, single oral dose 10 mg/kg in terms of […]. The method, then:
In order to evaluate an oral absorbability of the pharmaceutical particles produced in Example 2, the pharmaceutical particles of Example 2 and […] bulk powder were orally administrated to male SD rats (from 6 to 8 week-old, available from Japan SLC, Inc.) and then blood drug concentrations were measured over time. Each powder was suspended in water and administrated through a single-dose forced oral administration to the male SD rats at 10 mg/kg in terms of […]. After the oral administration, blood was collected from tail veins over time, transferred to heparinized micro test tubes, and cooled with ice immediately. After the cooling, the blood was rapidly centrifuged to obtain blood plasma. The resultant blood plasma was quantified by an ultra-high performance liquid chromatography (available from Waters) equipped with, as a detector, a single quadrupole mass spectrometer (ACQUITY SQD, available from Waters).

Series [2] can be described thus: Evaluation test for dissolution property in intrapulmonary-environment imitating liquid (Test Example 7). The series is classed as physicochemical. The note with it: 37 degrees Celsius, 30 spm. The method, then: Ten milligrams of the pharmaceutical particles were added to 100 mL of an intrapulmonary-environment imitating liquid (0.169 g of magnesium chloride, 5.016 g of sodium chloride, 0.249 g of potassium chloride, 0.059 g of anhydrous sodium sulfate, 0.306 g of calcium chloride dehydrate, 0.794 g of sodium acetate trihydrate, 2.170 g of sodium hydrogen carbonate, 0.080 g of sodium citrate dehydrate, 0.118 g of disodium hydrogen-phosphate, and 0.167 g of dipalmitoylphosphatidylcholine in 1 L of water). […] Thus, the “dissolution property” was evaluated.

Series [3] relates to blood calcium concentration. Nature of the series: Drug efficacy after transpulmonary administration, blood calcium concentration (Test Example 9). The series is classed as in vivo. Particulars: male SD rats, transpulmonary 40 micrograms/animal in terms of CALCITONIN, time zero = 100%. The method, then:
A powder preparation prepared using the pharmaceutical particles of Example 3 was evaluated for a drug efficacy after transpulmonary administration. The powder preparation was prepared by mixing the pharmaceutical particles of Example 3 with lactose (average particle diameter: 50 micrometers, RESPITOSE, available from DMV Japan) in an amount of 5 times as much as the amount of the pharmaceutical particles. The powder preparation was transpulmonary administrated (40 micrograms/animal in terms of CALCITONIN) to male SD rats (from 6 to 8 week-old, available from Japan SLC, Inc.) and then a blood calcium concentration after the administration was measured over time. As a control group, a simply mixed powder was prepared by molding a mixture of CALCITONIN bulk powder and lactose. The CALCITONIN has a pharmacological action of decreasing the blood calcium concentration. Therefore, the blood calcium concentration was selected as an indicator for evaluating the drug efficacy of the pharmaceutical particles of Example 3. The pharmaceutical particles were transpulmonary administrated by inserting an inhaler (DP-4, available from Ina Research Inc.) into the airway under inhalation anesthesia with isoflurane and feeding compressed air. A time point immediately before the transpulmonary administration was defined as time zero. Change in blood calcium concentration over time was evaluated assuming that a blood calcium concentration at the time zero was 100%. The blood calcium concentration was measured using a METALLOASSAY calcium (Ca) measurement LS kit CPZIII (available from Metallogenics Co., Ltd.).

`COc1ccc(/C=C/C(=O)Nc2ccccc2C(=O)O)cc1OC` [Tranilast]: in series [1], the bioavailability is 1.2%, the AUC(0-inf) came to 800 ± 400 ng·h/mL, the Cmax came out at 100 ng/mL and the time of peak concentration (Tmax) came to 1.8 ± 0.7 h. Moreover, in series [1], the half-life is 2.9 ± 0.7 h.
Turning to Calcitonin [Calcitonin bulk powder], the Dissolution amount in series [2] (time 0 hour) came to 0 µg/mL; in series [2] (time 0.25 hour), 9.56 ± 0.03 µg/mL; in series [2] (time 0.5 hour), 9.88 ± 0.13 µg/mL; in series [2] (time 1 hour), 9.68 ± 0.20 µg/mL; in series [2] (time 2 hour), 9.09 ± 0.04 µg/mL; in series [2] (time 4 hour), 9.01 ± 0.44 µg/mL. The Dissolution amount in series [2] (time 6 hour) is 9.39 ± 0.14 µg/mL; in series [2] (time 12 hour) it was 8.59 ± 0.15 µg/mL; in series [2] (time 60 hour), 8.63 ± 0.02 µg/mL. Besides, the Blood calcium concentration turned out to be 100% in series [3] (time 0 h); 81.7 ± 11.6% in series [3] (time 0.25 h); 74.6 ± 0.9% in series [3] (time 0.5 h); 81.1 ± 10.1% in series [3] (time 1 h); 79.5 ± 7.1% in series [3] (time 2 h); 96.7 ± 5.1% in series [3] (time 4 h). Further, the Blood calcium concentration in series [3] (time 6 h) was 99.1 ± 12.6%; in series [3] (time 8 h), 102.1 ± 15.9%; in series [3] (time 12 h), 104.3 ± 13.8%; in series [3] (time 24 h), 110.9 ± 5.5%.

As usually defined, the bioavailability is dose-corrected exposure relative to a reference, in per cent. Lower therefore signals little systemic uptake. As a reminder, the AUC(0-inf) is the area under the concentration-time curve extrapolated to infinity. Low values mean low exposure, high ones high exposure. Broadly, the Cmax is the highest concentration seen after dosing. By Tmax is commonly meant the time at which the peak concentration occurs. The half-life is the time in which the quantity being followed falls by half. A high value points to slow loss.
